{
  "source": "patent US20250170027A1",
  "about": "“COLLAGEN CROSS-LINKER AND USES THEREOF” (The Curators of the University of Missouri, priority 2022, published 2025)",
  "key": {"[1]": {"tested_on": "L929 cells", "format": "cell-based", "conditions": "dentin disks treated 1 min; 1 or 3 days exposure; FIGS. 6, 7", "method": "(§1) The cells were seeded onto 24 and 96-well plates at a density of 2×10^4 cells/cm^2 and incubated at 37° C. in 5% CO2 and 95% relative humidity until the monolayer cells spread over the bottom of the wells.\nTwenty-four teeth were sectioned obtaining 24-dentin disks (approximately 6-mm in diameter). The dentin disks were superficially etched using 32% phosphoric acid gel for 15 s on each side, rinsed thoroughly and placed in 100 μL of treatment solutions. After 1 min of treatment, the treated dentin disks were rinsed in sterile distilled water for 30 s. Treated dentin disks were immediately placed on a permeable polycarbonate membrane insert (6.5 mm in diameter, 3.0 μm pore size) above of cultured cells and covered with 100 μL of medium. After incubation, cell viability assay was used to stain live cells with calcein-AM and dead cells with ethidium homodimer. To distinguish overlapped cells in cell counting, Hoechst 33342 was used as a cell-permeant nuclear counterstain, following the guidelines specified by the manufacturer. Cells were imaged using a fluorescent High Content Microscope with 20× magnification. Cell counting was performed using ImageJ (NIH Image J1.8.0). The percentage of cell proliferation and dead cells were statistically compared to 1-day control using one-way ANOVA and Dunnett's test (α=0.05)."}, "[2]": {"tested_on": "L929 cells", "assay": "Effect of direct treatment on cell proliferation (MTS assay)", "format": "cell-based", "conditions": "treatment solutions diluted 1:1000, 1:2000, 1:4000 (v/v) in culture medium; FIG. 5", "method": "as §1\nThe direct treatments were conducted on 96-well plates with replacement of original culture medium with culture medium containing different diluted treatment solutions at ratios of 1:1000, 1:2000 and 1:4000 (v/v) and a control group containing only original culture medium. Cell proliferation was assessed with the MTS assay CellTiter 96 AQueous One Solution Cell Proliferation Assay following protocol guidelines specified by the manufacturer. Absorbance was measured using a multimode microplate reader at 460/30 nm at 2 h after addition of MTS reagent. Statistical analysis was performed using a two-way ANOVA for each used concentration followed by Tukey's post hoc (α=0.05)."}, "[3]": {"tested_on": "mammalian collagen", "assay": "Application of crosslinkers to mammalian collagen (biostability, general statement)", "conditions": "application of any one of the crosslinkers to mammalian collagen"}, "[4]": {"tested_on": "dentin collagen", "assay": "Biodegradation of dentin collagen by exogenous collagenase (weight loss, HYP release)", "format": "biochemical, human", "conditions": "crosslinker 0.6 wt % in EtOH, 60 s or 1 h treatment; 0.1% collagenase 1 h at 37° C.; FIG. 2A", "method": "Following the treatment and rinse, the dentin collagen films were dried (48 h under vacuum) and then exposed to 0.1% collagenase (type I, from Clostridium histolyticum, ≥125 U/mg) degradation for 1 h at 37° C. (n=6×10 films per group). The remnant films were dried as previously described and compared the weight percent before and after collagenase digestion for weight loss analysis (WL). The digestion solution was collected and processed to quantify the amount of HYP released. This processing comprised exposure to 5% Ehrlich's reagent, which binds to HYP and produces a colored solution, the color intensity of which is proportional to the concentration of HYP. Colorimetry was performed by measuring the absorbance at 555 nm in a microplate reader, thereby calculating the HYP μg/mg of collagen during digestion. […] All data for weight loss are separately shown after […] for each sample."}, "[5]": {"tested_on": "Clostridium histolyticum collagenase", "conditions": "after 1 hour incubation at 37° C.; 0.2 U/ml collagenase; EDTA 5 mM; FIG. 3", "description": "The direct inactivation of collagenase by TRI was also determined using a collagenase assay kit. Assays were performed in 96-well microplates with 0.2 U/ml Clostridium histolyticum collagenase incubated with the treatment solutions for up to 24 h according to the manufacturer's instructions. The well-known collagenase inhibitor 5 mM EDTA was used as a positive control. A group without any treatment was included as a negative control. The fluorescence of kinetic of inactivation was monitored at 1, 2, 4, 16 and 24 h of incubation at 37° C. in triplicate at 490 nm/520 nm. Fluorescence at the different time points was determined by subtracting background fluorescence. The collagenase activity was expressed in arbitrary fluorescence units. Then, the activity was calculated in percentage of inhibition according to the untreated negative control (presumed 100% collagenase activity) after 4 h of incubation. Statistical analysis was performed by one-way ANOVA and Games Howell's post hoc (α=0.05)."}},
  "data": [
    {"smiles": "O=CCCCC=O", "note": "[GA, glutaraldehyde]", "values": [
      {"measurement": "cytotoxic effect on L929 cells", "setting": "[1]", "value": "cytotoxic"},
      {"measurement": "cell proliferation (MTS absorbance) compared to the control sample", "setting": "[2]", "value": "high cytotoxicity"}
    ]},
    {"smiles": "O=C(O)c1cc(C(=O)NCCc2ccc(O)c(O)c2)cc(C(=O)NCCc2ccc(O)c(O)c2)c1", "note": "[TRI-2]", "values": [
      {"measurement": "biostability of mammalian collagen", "setting": "[3]", "value": "improves the biostability"}
    ]},
    {"smiles": "COC(=O)C1=CO[C@@H](O)[C@@H]2C(CO)=CC[C@H]12", "note": "[GEN, genipin]", "values": [
      {"measurement": "weight % change (weight loss) before and after collagenase digestion", "setting": "[4]", "value": "not faring much better"}
    ]},
    {"smiles": "CCOC(=O)c1cc(C(=O)NCCc2ccc(O)c(O)c2)cc(C(=O)NCCc2ccc(O)c(O)c2)c1", "note": "[TRI-3]", "values": [
      {"measurement": "biostability of mammalian collagen", "setting": "[3]", "value": "improves the biostability"}
    ]},
    {"smiles": "O=c1c(O)c(-c2ccc(O)c(O)c2)oc2cc(O)cc(O)c12", "note": "[QC, quercetin]", "values": [
      {"measurement": "weight % change (weight loss) before and after collagenase digestion", "setting": "[4]", "value": "not faring much better"}
    ]},
    {"smiles": "O=C(O)CN(CCN(CC(=O)O)CC(=O)O)CC(=O)O", "note": "[EDTA, ethylenediaminetetraacetic acid]", "values": [
      {"measurement": "collagenase inhibition", "setting": "[5]", "value": "some collagenase inhibition"}
    ]},
    {"smiles": "O=C(NCCc1ccc(O)c(O)c1)c1cc(C(=O)NCCc2ccc(O)c(O)c2)cc(C(=O)NCCc2ccc(O)c(O)c2)c1", "note": "[TRI-1]", "values": [
      {"measurement": "biostability of mammalian collagen", "setting": "[3]", "value": "improves the biostability"}
    ]}
  ]
}
